Laboratory results taken from PubChem BioAssay AID1963846 (Molecular Pharmacology Branch, DTP, NCI, 2024).
Where “and” joins values, the source holds several entries; their conditions need not be identical. Identical values can stand only once.

Tested on: 454973-116-R2-J3-PDC complex spheroid viability
Assay: Anticancer human tumor 454973-116-R2-J3-PDC patient-derived pancreatic carcinoma cell line growth inhibition [POLQ]
Conditions: for viability, T/C: stronger effect = lower value
Experimental: Multicellular complex tumor spheroid response to Polymerase (POL) inhibitors (novobiocin, ART-558, RP6685) in combination with a variety of drugs and investigational agents in selected tumor cell lines
The POL inhibitors (novobiocin, ART-558, and RP6685) were evaluated both individually and in combination with standard of care and investigational anticancer small molecules within a complex spheroid model of solid tumors. . Complex spheroids include a stromal component modeled by human endothelial cells (HUVEC) and fibroblasts modeled by human mesenchymal stem cells (MSCs). The concentration ranges selected for each drug and investigational agent were based upon clinically achievable concentrations if the clinical Cmax of the agent was known.
Compounds. The drugs and investigational agents: novobiocin (NSC847541), ART-558 (NSC835418), RP-6685 (NSC848927), peposertib (NSC802822), ceralasertib (NSC780249), elimusertib (NSC800525), camonsertib (NSC841442), AZD-1390 (NSC803789), olaparib (NSC753686), talazoparib (NSC767125), rucaparib (NSC756644), sotorasib (NSC818433), MRTX-1133 (NSC836407), SN-38 (NSC673596), topotecan (NSC609699), epotoside (NSC141540), doxorubicin (NSC123127), gemcitabine (NSC613327), 5-fluorouracil (NSC19893), paclitaxel (NSC125973), vemurafenib (NSC761431), MSA-2 (NSC828583), SN-011 (NSC837082), adavosertib (NSC754352), prexasertib (NSC758257), carboplatin (NSC241240) and oxaliplatin (NSC266046), were obtained from the National Cancer Institute (NCI) Developmental Therapeutics Program Chemical Repository (21). The FDA-approved anticancer drug set is available from the Developmental Therapeutics Program at https://dtp.cancer.gov/organization/dscb/obtaining/. […] The stock solutions were prepared in dimethyl sulfoxide (DMSO, Sigma-Aldrich, St. Louis, MO, cat. D2650), except for the platinum compounds which were prepared in saline (Quality Biological, Gaithersburg, MD, cat. 114-055-101), at 800-fold the tested concentration and stored at -70 degrees C prior to their use. All drugs and investigational agents were tested over a range starting from a high concentration at or near the clinical Cmax and decreasing in half-log increments. If the clinical Cmax for an agent had not been determined, the highest concentration tested was 10 microM, except for SN-38, which was tested at a high concentration of 1 microM.
Cell Culture. All cells were maintained in an incubator at 37 degrees C and 5% CO2 with 95% humidity. The PDC lines were cultured according to standard operating procedures established by the NCI PDMR (https://pdmr.cancer.gov). Table 3 of the manuscript, lists the cell lines along with the number of the three cell types plated to form the mct-spheroids and media for tumor cell growth. After thawing, all PDC lines, except 997537-175-T-J1-PDC and 415267-285-R-J2-PDC, were cultured in Matrigel-coated flasks prepared with a working solution of 1X Ham's F-12 nutrient mix, without supplementation (Thermo Fisher Scientific, cat. 11765054), 100 U/mL penicillin-streptomycin (Thermo Fisher Scientific, cat. 15140122), and 2.5% Matrigel (Corning Inc., Corning, NY, cat. 354248) for the first three passages. The two PDC lines 997537-175-T-J1-PDC and 415267-285-R-J2-PDC were cultured on uncoated flasks. The 857933-349-R-J2-PDC line was cultured in 6C/Colon 1B media containing advanced DMEM/F-12 (Thermo Fisher Scientific, cat. 12634028), 10 mM HEPES (Thermo Fisher Scientific, cat. 15630080), 1X GlutaMAX supplement (Thermo Fisher Scientific, cat. 35050061), 0.1 mg/mL primocin (InvivoGen, San Diego, CA, cat. ant-pm-2), 10% defined fetal bovine serum, heat inactivated (HyClone Laboratories Inc., Logan, UT, cat. SH30070.03HI), 50% L-WRN conditioned media (ATCC, cat. CRL-3276), 1.25 mM N-Acetyl-L-cysteine (Sigma-Aldrich, cat. A9165), 10 mM nicotinamide (Sigma-Aldrich, cat. N0636), 1X B-27 supplement (Thermo Fisher Scientific, cat. 17504044), 1X N-2 supplement (Thermo Fisher Scientific, cat. […]
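Further: spheroids exposed to drugs for seven days before measurement.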
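Wherever viability, T/C is given: percent viability relative to DMSO vehicle control wells taken as 100%.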

`CC(=O)O[C@H]1C(=O)[C@@]2(C)[C@H]([C@H](OC(=O)c3ccccc3)[C@]3(O)C[C@H](OC(=O)[C@H](O)[C@@H](NC(=O)c4ccccc4)c4ccccc4)C(C)=C1C3(C)C)[C@]1(OC(C)=O)CO[C@@H]1C[C@@H]2O` was tested, and the viability, T/C (compound 0.00949 µM) was 6.41% and 6.34% and 12.2%, the viability, T/C (compound 0.03 µM) was 4.28% and 4.53% and 8.36% and the viability, T/C (compound 0.0949 µM) was 6.3% and 3.83% and 4.72%. For the same compound, the viability, T/C (compound 0.3 µM) was 4.7% and 3.78% and 4.01%, the viability, T/C (compound 0.949 µM) was 4.44% and 4.41% and 4.87% and the viability, T/C (compound 3 µM) was 4.64% and 4.24% and 4.62%. The IC50 (curve of compound) was under 9.49 nM.

With `COc1cccc2c1C(=O)c1c(O)c3c(c(O)c1C2=O)CC(O)(C(=O)CO)CC3OC1CC(N)C(O)C(C)O1` (centres undefined) + COC1C(OC(N)=O)C(O)C(Oc2ccc3c(O)c(NC(=O)c4ccc(O)c(CC=C(C)C)c4)c(=O)oc3c2C)OC1(C)C the IC50 (curve of first compound, second compound 0.0316 µM) was 56.2 nM, the IC50 (curve of first compound, second compound 0.1 µM) was 57.3 nM and the IC50 (curve of first compound, second compound 0.316 µM) was 64.8 nM. It also gave an IC50 (curve of first compound, second compound 1 µM) of 63.6 nM, an IC50 (curve of first compound, second compound 3.16 µM) of 66.4 nM and an IC50 (curve of first compound, second compound 10 µM) of 61.8 nM. For the same compound, the viability, T/C (second compound 0.0316 µM, first compound 0.0316 µM) was 71%, the viability, T/C (second compound 0.0316 µM, first compound 0.1 µM) was 23.6% and the viability, T/C (second compound 0.0316 µM, first compound 0.316 µM) was 21.3%. The viability, T/C (second compound 0.0316 µM, first compound 1 µM) was 8.86%, the viability, T/C (second compound 0.0316 µM, first compound 3.16 µM) was 0.64% and the viability, T/C (second compound 0.0316 µM, first compound 10 µM) was 0.19%. The viability, T/C (second compound 0.1 µM, first compound 0.0316 µM) was 69.5%, the viability, T/C (second compound 0.1 µM, first compound 0.1 µM) was 27.6% and the viability, T/C (second compound 0.1 µM, first compound 0.316 µM) was 22.3%. It also gave a viability, T/C (second compound 0.1 µM, first compound 1 µM) of 8.87%, a viability, T/C (second compound 0.1 µM, first compound 3.16 µM) of 0.52% and a viability, T/C (second compound 0.1 µM, first compound 10 µM) of 0.98%. The viability, T/C (second compound 0.316 µM, first compound 0.0316 µM) was 74.3%, the viability, T/C (second compound 0.316 µM, first compound 0.1 µM) was 29.4% and the viability, T/C (second compound 0.316 µM, first compound 0.316 µM) was 25.5%. The viability, T/C (second compound 0.316 µM, first compound 1 µM) was 8.79%, the viability, T/C (second compound 0.316 µM, first compound 3.16 µM) was 0.27% and the viability, T/C (second compound 0.316 µM, first compound 10 µM) was 0.29%. It also gave a viability, T/C (second compound 1 µM, first compound 0.0316 µM) of 78.3%, a viability, T/C (second compound 1 µM, first compound 0.1 µM) of 26% and a viability, T/C (second compound 1 µM, first compound 0.316 µM) of 23.6%. For the same compound, the viability, T/C (second compound 1 µM, first compound 1 µM) was 11.8%, the viability, T/C (second compound 1 µM, first compound 3.16 µM) was 3.28% and the viability, T/C (second compound 1 µM, first compound 10 µM) was 2.08%. It also gave a viability, T/C (second compound 3.16 µM, first compound 0.0316 µM) of 76.4%, a viability, T/C (second compound 3.16 µM, first compound 0.1 µM) of 30.7% and a viability, T/C (second compound 3.16 µM, first compound 0.316 µM) of 22.9%. For the same compound, the viability, T/C (second compound 3.16 µM, first compound 1 µM) was 9.68%, the viability, T/C (second compound 3.16 µM, first compound 3.16 µM) was 0.46% and the viability, T/C (second compound 3.16 µM, first compound 10 µM) was 0.39%. It also gave a viability, T/C (second compound 10 µM, first compound 0.0316 µM) of 76%, a viability, T/C (second compound 10 µM, first compound 0.1 µM) of 24.7% and a viability, T/C (second compound 10 µM, first compound 0.316 µM) of 24.8%. It also gave a viability, T/C (second compound 10 µM, first compound 1 µM) of 10%, a viability, T/C (second compound 10 µM, first compound 3.16 µM) of 1.62% and a viability, T/C (second compound 10 µM, first compound 10 µM) of 0.41%.
